Assay results published in publication PMC6934184, “Selective DNA-PKcs inhibition extends the therapeutic index of localized radiotherapy and chemotherapy” (The Journal of Clinical Investigation, 2019).

Molecular target: T1, HIPK2 (Homo sapiens, UniProt Q9H2X6)
T1 construct: purchased Thermo Fisher Scientific (Life Technologies) SelectScreen
Assay: SelectScreen Z'LYTE
Type: biochemical
Outline: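 Percent values come from Thermo SelectScreen profiling of NU5455, combining activity and binding assays. CSF1R was run in Z'LYTE format at Km app ATP, and CAMK1 in Adapta format with ATP listed at 10.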

T1 sequence (Q9H2X6 whole entry): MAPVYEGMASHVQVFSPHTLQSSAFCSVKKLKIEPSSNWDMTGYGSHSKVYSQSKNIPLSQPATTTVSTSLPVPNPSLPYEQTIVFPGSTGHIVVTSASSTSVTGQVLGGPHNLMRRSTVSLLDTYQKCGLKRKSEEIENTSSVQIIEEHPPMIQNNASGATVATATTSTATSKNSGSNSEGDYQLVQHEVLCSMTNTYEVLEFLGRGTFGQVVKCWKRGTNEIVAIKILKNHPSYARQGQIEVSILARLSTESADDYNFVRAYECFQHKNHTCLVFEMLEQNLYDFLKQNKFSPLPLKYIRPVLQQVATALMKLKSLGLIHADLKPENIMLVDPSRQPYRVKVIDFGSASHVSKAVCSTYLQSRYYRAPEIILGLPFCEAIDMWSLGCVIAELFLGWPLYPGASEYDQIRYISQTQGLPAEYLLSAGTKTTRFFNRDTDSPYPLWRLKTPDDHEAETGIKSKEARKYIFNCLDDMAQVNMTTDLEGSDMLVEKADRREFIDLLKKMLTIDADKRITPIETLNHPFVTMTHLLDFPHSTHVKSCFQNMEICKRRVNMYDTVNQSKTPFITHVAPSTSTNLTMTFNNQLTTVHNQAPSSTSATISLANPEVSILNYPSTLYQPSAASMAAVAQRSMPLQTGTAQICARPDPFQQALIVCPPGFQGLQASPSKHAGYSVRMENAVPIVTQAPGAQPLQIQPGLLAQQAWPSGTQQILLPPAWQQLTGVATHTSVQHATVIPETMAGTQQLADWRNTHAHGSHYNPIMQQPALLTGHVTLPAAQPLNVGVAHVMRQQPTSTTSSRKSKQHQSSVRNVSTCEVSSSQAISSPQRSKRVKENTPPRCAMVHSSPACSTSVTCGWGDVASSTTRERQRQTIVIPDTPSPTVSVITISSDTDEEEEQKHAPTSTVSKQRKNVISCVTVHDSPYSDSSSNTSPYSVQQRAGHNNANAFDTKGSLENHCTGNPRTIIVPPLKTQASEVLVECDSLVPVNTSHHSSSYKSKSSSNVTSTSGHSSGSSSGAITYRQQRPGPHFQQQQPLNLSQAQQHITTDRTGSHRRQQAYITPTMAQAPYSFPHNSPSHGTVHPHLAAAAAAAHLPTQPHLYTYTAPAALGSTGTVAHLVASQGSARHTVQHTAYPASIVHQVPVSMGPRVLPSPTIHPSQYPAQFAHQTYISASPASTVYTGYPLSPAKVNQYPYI

## CN(C(=O)CN1CCOCC1)c1ccc2sc3c(-c4cccc5c(=O)cc(N6CC7CCC(C6)O7)oc45)cccc3c2c1 [NU5455]
  inhibition at 1 µM: 7.8%
